Experimental data published in patent US20240288449A1, “METHODS FOR DIAGNOSING A CANCER- OR ANTIBIOTICS-INDUCED DYSBIOSIS AND THEIR USE FOR IMPROVING CANCER TREATMENT BY IMMUNOTHERAPY” (INSTITUT GUSTAVE ROUSSY, priority 2021, published 2024).

Assays:
[1] = test system: MAdCAM-1 (Madcam1 gene expression); assay: Madcam1 gene and protein expression in gut tissues of mice (RT-PCR, IHC, flow cytometry, ELISA); type: in vivo, C57BL/6J mice; conditions: for Madcam1 gene expression in mesenteric lymph nodes (mLN) / Madcam1 gene expression in ileal LP: single antibiotic regimen, 7 days conditioning
Protocol: (§1) Antibiotic treatments. If not indicated otherwise, mice were treated with a broad spectrum antibiotic solution (ATB) containing ampicillin (1 mg/ml), streptomycin (5 mg/ml), and colistin (1 mg/ml) (Sigma-Aldrich) added to the sterile drinking water of mice. In experiments where single antibiotics were used the concentrations were ampicillin (1 mg/ml), streptomycin (5 mg/ml), colistin (1 mg/ml), erythromycin (1 mg/ml) or ciprofloxacin (0.1 mg/ml) respectively. Solutions and bottles were changed 2 times weekly. Antibiotic activity, in the experiments where the antibiotic mix was used, was confirmed by cultivating fecal pellets resuspended in BHI+15% glycerol at 0.1 g/ml on COS (Columbia Agar with 5% Sheep Blood) plates for 48 h at 37° C. in aerobic and anaerobic conditions weekly. Duration of ATB treatment was slightly different (7-14 days before aPD-1 treatment) based on the experimental settings and is indicated in results for each experiment. In brief, to compromise the efficacy of anti-PD-1 mAb, mice were treated with ATB for one to two weeks before tumor implantation and ATB was continued throughout the experiment or discontinued on the day of anti PD-1 treatment initiation as indicated in the individual experiment. In the context of fecal microbial transplantation experiments, mice received 3 days of ATB before undergoing fecal microbial transplantation the next day by oral gavage using animal feeding needles. In the TC-1 model, ATB treatment was started 3 days before tumor injection and discontinued one day before the first bacterial gavage.
Oral bacterial gavage with commensal species. Akkermansia muciniphila CSUR P2261, and A. indistinctus CSUR P723 were provided by the Institut hospitalo-universitaire Méditerranée Infection, Marseille, France. Enterococcus hirae 13144 isolates were originally isolated from spleens or mesenteric lymph nodes of SPF mice treated with CTX at Gustave Roussy Cancer Campus. A. muciniphila was grown on COS plates in an anaerobic atmosphere created using 3 anaerobic generators (Biomerieux) at 37° C. for at least 72 h. E. hirae 13144 were grown on 5% sheep blood enriched Columbia agar for 24 h at 37° C. in aerobic conditions. Colonization of ATB pre-treated or GF C57BL/6 mice was performed by oral gavage with 100 μl of suspension containing 1×10^8 bacteria. For bacterial gavage: suspensions of […] were obtained using a fluorescence spectrophotometer (Eppendorf) at an optical density of 600 nm in PBS. Five bacterial gavages were performed for each mouse, the first 24 h before the first injection of antiPD-1 mAb and subsequently four times on the same day as anti-PD-1 mAb injection. The efficacy of colonization with E. hirae 13144 was confirmed by culturing the feces 48 h post gavage. Fecal pellets were harvested and resuspended in BHI+15% glycerol at 0.1 g/ml. Serial dilutions of feces were plated onto 5% sheep blood enriched Columbia agar and incubated for 48 h at 37° C. in aerobic and anaerobic conditions. After 48 h, single colonies were isolated and Gram staining was performed. The identification of specific bacteria was accomplished using a Matrix-Assisted Laser Desorption/Ionisation Time of Flight (MALDI-TOF) mass spectrometer (Andromas, Beckman Coulter, France).
RNA extraction and rtPCR. Lysis and extraction protocols were identical for human and mouse samples. Tumor or intestinal samples were snap frozen in liquid nitrogen in RLT Plus buffer containing 0.1% beta mercaptoethanol. On the day of extraction samples were thawed at 4° C. and homogenized on a microtube homogenizer (Benchmark Scientific) in RNA free glass bead tubes (Dutscher). Total RNA extraction and genomic DNA removal were performed with the RNeasy Mini kit (Qiagen), following the manufacturer's recommendations. […]

[2] = test system: metastatic bladder cancer; assay: STRONG study, Durvalumab in pre-treated metastatic bladder cancer patients; type: in vivo, human; conditions: 79 patients, 1500 mg iv /4 weeks
Protocol: Finally, we sought to triplicate the predictive value of sMAdCAM-1 in a subcohort of a Phase 3a trial enrolling pre-treated metastatic bladder cancer patients to receive a fixed dose of 1500 mg of Durvalumab iv (anti-PD-L1 Abs)/4 weeks. In this STRONG study, 79 patients only were analyzed, with an overall median OS of 5.79 months, and a median PFS of 2.79 months. We selected the extreme of the STRONG cohort, 30 Elite patients (OS>6 months, PFS>5 months, PR+CR only) and rapid progressors (n=49, with OS<6 months and PFS<5 months and PD at the first CT scan). In this cohort, the MAdCAM-1 median (min,max) was 158.8 ng/ml (53.41, 244.36).

[3] = test system: RORγt+ Treg (Tr17) in MCA205 and 4T1 tumors; assay: Flow cytometry of tumor infiltrating lymphocytes and mLN (Tr17 subsets); type: in vivo, mice; conditions: oral gavage after ATB stop, s.c. MCA205, αPD-1-based therapy
Protocol: as §1, with “In the context of fecal microbial transplantation experiments, mice received 3 days of ATB before undergoing fecal microbial transplantation the next day by oral gavage using animal feeding needles. In the TC-1 model, ATB treatment was started 3 days before tumor injection and discontinued one day before the first bacterial gavage.” left out
Subcutaneous model of MCA-205 sarcoma, MC38 and RET melanoma. […] Tumor length and width was routinely monitored every 3 times per week by means of a caliper. […]

[4] = test system: metastatic clear cell renal cell carcinoma (RCC); assay: NIVOREN trial, second line anti-PD1 in renal cell carcinoma patients; type: in vivo, human
[5] = NIVOREN trial, N=729 RCC patients

`CC1(C)S[C@@H]2[C@H](NC(=O)[C@H](N)c3ccccc3)C(=O)N2[C@H]1C(=O)O` [ampicilline, ampicillin] was tested, and the “Madcam1 gene expression in mesenteric lymph nodes (mLN)” value (“Madcam1 gene expression … (mLN)” below) ([1]; RT-PCR) was “downregulate”.
With `CC[C@H]1OC(=O)[C@H](C)[C@@H](O[C@H]2C[C@@](C)(OC)[C@@H](O)[C@H](C)O2)[C@H](C)[C@@H](O[C@@H]2O[C@H](C)C[C@H](N(C)C)[C@H]2O)[C@](C)(O)C[C@@H](C)C(=O)[C@H](C)[C@@H](O)[C@]1(C)O` [erythromycin] the “Madcam1 gene expression … (mLN)” value ([1]; RT-PCR) was “downregulate”.
For `[H]/N=C(/N)N[C@H]1[C@H](O)[C@@H](O)[C@H](O[C@@H]2O[C@@H](C)[C@](O)(C=O)[C@H]2O[C@@H]2O[C@@H](CO)[C@H](O)[C@@H](O)[C@@H]2NC)[C@@H](N/C(N)=N\[H])[C@@H]1O` [streptomycin], the “Madcam1 gene expression in Peyers' patches (PP)” value ([1]; RT-PCR) was “downregulated”, the “Madcam1 gene expression in ileal LP” value ([1]; RT-PCR) was “downregulated” and the “Madcam1 gene expression … (mLN)” value ([1]; RT-PCR) was “downregulated”.
For `CN[C@H](CC(C)C)C(=O)N[C@H]1C(=O)N[C@@H](CC(N)=O)C(=O)N[C@H]2C(=O)N[C@H]3C(=O)N[C@H](C(=O)N[C@H](C(=O)O)c4cc(O)cc(O)c4-c4cc3ccc4O)[C@H](O)c3ccc(c(Cl)c3)Oc3cc2cc(c3O[C@@H]2O[C@H](CO)[C@@H](O)[C@H](O)[C@H]2O[C@H]2C[C@](C)(N)[C@H](O)[C@H](C)O2)Oc2ccc(cc2Cl)[C@H]1O` [vancomycin], the “Madcam1 gene expression in ileal LP” value ([1]; RT-PCR) was “upregulated” and the “Madcam1 gene expression … (mLN)” value ([1]; RT-PCR) was “failed to downregulate”.
Durvalumab: anti-PD-L1 Abs was tested, and the “median PFS” value [2] was 2.79 months and the “overall median OS” value [2] was 5.79 months.
Lactobacillus reuteri was tested, and the “Madcam1 ileal gene expression” value ([1]; oral supplementation of FMT recipients) was “could further influence” and the “Tr17 recruitment promoted by PD1 inhibition” value [3] was “failed to do so”.
Work on Nivolumab: anti-PD1 mAb yielded a complete responses [4, 5] of 1.2%, an objective response rate [4, 5] of 20.8% and a partial responses [4, 5] of 19.6%. For the same compound, the “progressive diseases (PD)” value [4, 5] was 79.2%, the “Best response: Partial response” value ([4]; Overall (n = 212) RCC patients) was “(7.1) %” and the “Best response: Progressive disease” value ([4]; Overall (n = 212) RCC patients) was “(49.7) %”.
